The values that follow come from ChEMBL document CHEMBL6109142 (J Med Chem, 2025).

One may read the IC50 as the concentration needed to halve the response being measured. A word on the EC50: it is the midpoint of the concentration-response curve. Broadly, the Ki is the dissociation constant of the complex between target and ligand, obtained from inhibition or displacement. One may read the CC50 as the concentration at which the toxic effect on the cells reaches its halfway point.

Data set [1] deals with SARS-CoV-2. As to the kind of experiment: Antiviral activity against SARS-CoV-2 EG.5.1 infected in human Calu-3 cells assessed as reduction in residual intracellular nucleocapsid value at 1 uM preincubated with cells for 3 hrs followed by viral infection and measured after 48 hrs by immunostaining based analysis. The class given is functional, organism-based. To be noted: Severe acute respiratory syndrome coronavirus 2, time 51.0 hrs.

For data set [2], the target named is T1, Transmembrane protease serine 2 (Homo sapiens, UniProt O15393). The data set is described as follows: Inhibition of recombinant TMPRSS2 (unknown origin) extracted from baculovirus infected in Sf9 cells using Boc-QAR-AMC as substrate measured after 1 hr by fluorescence based analysis.
Data set [3] concerns Calu-3. As to the kind of experiment: Cytotoxicity against human Calu-3 cells assessed as cell viability at 10 uM measured after 72 hrs by luminescence based Cell-Titer-Glo assay. The class given is toxicity. To be noted: calu-3, 72 h.
In data set [4] the test system is SARS-CoV-2. The data set is described as follows: Antiviral activity against SARS-CoV-2 EG.5.1 infected in human Calu-3 cells preincubated with cells for 3 hrs followed by viral infection and measured after 48 hrs by immunostaining based analysis. The format is functional, organism-based. Particulars: Severe acute respiratory syndrome coronavirus 2, EG.5.1, Calu-3.

Data set [5] deals with T2, Suppressor of tumorigenicity 14 protein (Homo sapiens, UniProt Q9Y5Y6).
T2 sequence (Q9Y5Y6 whole entry): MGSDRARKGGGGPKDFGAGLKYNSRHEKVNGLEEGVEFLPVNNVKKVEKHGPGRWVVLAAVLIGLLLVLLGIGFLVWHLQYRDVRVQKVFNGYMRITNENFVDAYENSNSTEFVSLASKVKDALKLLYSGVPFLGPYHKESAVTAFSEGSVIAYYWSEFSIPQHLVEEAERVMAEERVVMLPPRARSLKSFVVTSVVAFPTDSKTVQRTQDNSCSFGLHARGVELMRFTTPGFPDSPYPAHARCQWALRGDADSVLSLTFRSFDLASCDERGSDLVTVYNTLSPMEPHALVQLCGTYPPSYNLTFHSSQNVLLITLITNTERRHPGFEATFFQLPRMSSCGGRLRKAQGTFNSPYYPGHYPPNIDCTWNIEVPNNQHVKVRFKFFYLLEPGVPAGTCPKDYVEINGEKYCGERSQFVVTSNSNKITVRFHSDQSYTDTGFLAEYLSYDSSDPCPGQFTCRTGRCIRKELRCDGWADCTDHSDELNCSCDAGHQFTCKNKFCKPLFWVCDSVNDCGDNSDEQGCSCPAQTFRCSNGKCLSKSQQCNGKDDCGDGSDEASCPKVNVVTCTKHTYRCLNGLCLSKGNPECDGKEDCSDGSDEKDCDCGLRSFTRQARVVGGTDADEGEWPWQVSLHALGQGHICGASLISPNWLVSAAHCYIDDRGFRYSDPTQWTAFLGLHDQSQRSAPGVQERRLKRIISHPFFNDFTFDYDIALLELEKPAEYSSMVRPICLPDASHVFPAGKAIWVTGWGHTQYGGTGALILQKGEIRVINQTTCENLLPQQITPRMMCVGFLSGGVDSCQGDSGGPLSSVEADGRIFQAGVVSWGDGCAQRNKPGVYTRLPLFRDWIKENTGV
As to the kind of experiment: Inhibition of Matriptase (unknown origin) assessed as inhibition constant using Boc-QAR-AMC as substrate incubated for 1 hr by fluorescence based analysis.

Data set [6] deals with T1, Transmembrane protease serine 2. The data set is described as follows: Inhibition of recombinant das TMPRSS2 (unknown origin) extracted from baculovirus infected in Sf9 cells assessed as inhibition constant using Boc-QAR-AMC as substrate measured after 1 hr by fluorescence based analysis.
Data set [7] addresses Procathepsin L (Homo sapiens, UniProt P07711). As to the kind of experiment: Inhibition of recombinant human C-terminal 6 his-tagged Cathepsin L assessed as inhibition constant using Z-LR-AMC as peptide substrate incubated for 1 hr by fluorescence based analysis.
For data set [8], the system named is SARS-CoV-2. As to the kind of experiment: Antiviral activity against SARS-CoV-2 JN.1 infected in human Calu-3 cells preincubated with cells for 3 hrs followed by viral infection and measured after 48 hrs by immunostaining based analysis. The class given is functional, organism-based. Particulars: Severe acute respiratory syndrome coronavirus 2, JN.1, Calu-3.

For data set [9], the system named is SARS-CoV-2. As to the kind of experiment: Antiviral activity against SARS-CoV-2 pseudotyped with delta spike protein infected in human Calu-3 cells assessed as prevention of virus-like particle cellular entry at 300 nM preincubated with cells for 3 hrs followed by viral infection and measured after 72 hrs by ONE-Glo-Ex luciferase assay relative to control. The class given is functional, Severe acute respiratory syndrome coronavirus 2. Particulars: time 75 hrs.

For data set [10], the target named is T1, Transmembrane protease serine 2. The data set is described as follows: Inhibition of recombinant TMPRSS2 (unknown origin) extracted from baculovirus infected in Sf9 cells assessed as residual activity using Boc-QAR-AMC as substrate at 1 nM measured after 1 hr by fluorescence based analysis relative to control.
The nature of data set [11]: Drug concentration in C57BL/6J mouse plasma measured after 15 mins. To be noted: read-out: Drug uptake. The class given is ADME.
The nature of data set [12]: Bioavailability in C57BL/6J mouse at 5 mg/kg, ISIN (Intranasal) measured up to 24 hrs by LC-MS/MS analysis. The class given is ADME, organism-based. Particulars: in vivo, inhaled_or_intranasal.
The test system of data set [13] is SARS-CoV-2. As to the kind of experiment: Antiviral activity against SARS-CoV-2 EG.5.1 infected in human Calu-3 cells assessed as reduction in residual intracellular nucleocapsid value at 1 uM preincubated with cells for 3 hrs followed by viral infection and measured after 48 hrs by immunostaining based analysis relative to control. The class given is functional, Severe acute respiratory syndrome coronavirus 2. To be noted: time 51 hrs.

Data set [14] can be described thus: Toxicity in C57BL/6J mouse at 5 mg/kg, ISIN (Intranasal) measured for 24 hrs. To be noted: in vivo, inhaled_or_intranasal. The format is organism-based.
Data set [15] in a line: Half life in C57BL/6J mouse plasma at 5 mg/kg, ISIN (Intranasal) measured up to 24 hrs by LC-MS/MS analysis. Particulars: in vivo, inhaled_or_intranasal. The format is ADME, organism-based.
Data set [16] can be described thus: Toxicity in C57BL/6J mouse at 5 mg/kg, iv measured for 24 hrs. The class given is organism-based. To be noted: in vivo.
The nature of data set [17]: Cytotoxicity against human Calu-3 cells assessed as cell viability measured after 72 hrs by luminescence based Cell-Titer-Glo assay. The class given is toxicity.
The nature of data set [18]: Half life in C57BL/6J mouse plasma at 5 mg/kg, iv measured up to 24 hrs by LC-MS/MS analysis. The format is ADME, organism-based. To be noted: in vivo.
The target in data set [19] is T1, Transmembrane protease serine 2. The data set is described as follows: Inhibition of full length TMPRSS2 (unknown origin) expressed in African green monkey Vero E6 cells using Boc-QAR-AMC as substrate incubated for 24 hrs by microplate reader analysis. The class given is cell-based.

Calls of active or inactive are those of the source. The calls are words filed in the database; no cut-off is given here.

T1 sequence (O15393 1-255 limits assumed): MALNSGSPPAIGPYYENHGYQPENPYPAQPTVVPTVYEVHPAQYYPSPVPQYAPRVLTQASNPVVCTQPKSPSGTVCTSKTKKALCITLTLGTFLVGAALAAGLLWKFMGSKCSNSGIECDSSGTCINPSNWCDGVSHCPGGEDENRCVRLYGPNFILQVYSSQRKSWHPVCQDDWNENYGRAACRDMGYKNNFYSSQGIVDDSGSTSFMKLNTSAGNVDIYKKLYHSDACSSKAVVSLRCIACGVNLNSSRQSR
T1 sequence (O15393 256-492 limits assumed): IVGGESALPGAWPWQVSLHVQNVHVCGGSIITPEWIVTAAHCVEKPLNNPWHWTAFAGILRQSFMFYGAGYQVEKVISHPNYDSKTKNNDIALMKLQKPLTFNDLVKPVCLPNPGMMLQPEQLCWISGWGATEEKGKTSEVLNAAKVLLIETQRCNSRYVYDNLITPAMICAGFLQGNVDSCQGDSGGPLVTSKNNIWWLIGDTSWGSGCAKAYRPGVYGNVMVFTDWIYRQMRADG
Chain of Procathepsin L (P07711 114-333 limits assumed): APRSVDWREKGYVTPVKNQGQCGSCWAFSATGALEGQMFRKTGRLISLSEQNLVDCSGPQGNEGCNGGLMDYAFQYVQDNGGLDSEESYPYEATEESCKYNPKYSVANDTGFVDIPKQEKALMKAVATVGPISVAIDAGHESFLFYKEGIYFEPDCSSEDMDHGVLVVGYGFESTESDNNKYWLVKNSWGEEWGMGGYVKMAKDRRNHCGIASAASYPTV

For `C[C@H](NC(=O)[C@H](CCC(N)=O)NC(=O)CCCCNC(=N)N)C(=O)N[C@@H](CCCNC(=N)N)C(=O)c1nc2ccccc2s1`, in data set [1], the result was Active. Further, the IC50 in [2] amounted to 2.4 nM. The Activity entry in data set [3] was “Non-toxic”; in data set [9] it was 12%; in data set [10], 46%. The 50% effective concentration (EC50) in data set [4] worked out at 11.9 nM; in [8], 2.8 nM. The results for the Ki in [5] and in data set [6] were 0.16 nM and 0.53 nM, respectively. Also, the inhibition result in data set [7] is “inactive”.

Take `N=C(N)NCCC[C@H](NC(=O)[C@H](Cc1ccccc1)NC(=O)[C@H](CCC(N)=O)NC(=O)OCc1ccccc1)C(=O)c1nccs1`: the result in data set [1] was Active. The IC50 is 0.35 nM in data set [2] and 0.59 nM in data set [19]. The concentration at 0.25 h in [11] was 182 ng/mL. Besides, the F in data set [12] is given as 10.9%. The Activity in data set [13] was 2.2%; in [14] it was “Non-toxic”; in data set [3], “Non-toxic”; in data set [16] it was “Non-toxic”; in data set [9], 13%; in [10], 3%. For the same compound, the EC50 in data set [4] stood at 0.3 nM; in data set [8], 0.09 nM. The results for the t1/2 in data set [15] and in [18] were 1.8 h and 4.79 h, respectively. The Ki in [6] came out at 0.03 nM. In addition, the CC50 at 72 h in [17] was 110000 nM. Also, the inhibition result in data set [7] was “inactive”.
